Measured values published in DBAASP.
Converted amounts (≈) assume the structure as drawn.

How the values were obtained:
Test in all cases: ≥ marks a high value that may be exact or a test limit, other limits are often not marked, values filed in µg/mL are converted to µM
[1] = system: Bacillus subtilis ATCC 6633
[2] = system: Klebsiella pneumoniae NCTC 5055
[3] = system: Pseudomonas aeruginosa ATCC 27853
[4] = system: Micrococcus luteus ATCC 49732
[5] = system: Staphylococcus aureus ATCC 6538
[6] = system: Salmonella typhimurium DA6192
[7] = system: Escherichia coli ATCC 15597
[8] = system: Escherichia coli ATCC 2592
[9] = system: Pseudomonas aeruginosa ATCC 10145
[10] = system: Staphylococcus aureus ATCC 33591
[11] = system: Cryptococcus neoformans ATCC 32045
[12] = system: Candida albicans ATCC 10231
Escherichia coli BW25113 = system: Escherichia coli BW25113
[13] = system: Candida parapsilosis CGMCC 2.3989
[14] = system: Candida tropicalis CGMCC 2.1975
[15] = system: Staphylococcus aureus ATCC 25923
[16] = system: Salmonella enterica subsp. enterica serovar Typhimurium ATCC 14028
[17] = system: Lacticaseibacillus rhamnosus 7469
[18] = system: Candida albicans CGMCC 2.2086
[19] = system: Staphylococcus aureus ATCC 29213
[20] = system: Salmonella enterica subsp. enterica serovar Typhimurium C77-31
[21] = system: Lactiplantibacillus plantarum 8014
[22] = system: Staphylococcus epidermidis ATCC 12228

Structure (SMILES)	MIC [1]	MIC [2]	MIC [3]	MIC [4]	MIC [5]	MIC [6]	MIC [7]	MIC [8]	MIC [9]	MIC [10]	MIC [11]	MIC [12]	further results
CC[C@H](C)[C@H](N)C(=O)N[C@H](C(=O)N[C@@H](CCCCN)C(=O)N[C@H](C(=O)N[C@H](C(=O)N[C@@H](C)C(=O)N[C@@H](CCCCN)C(=O)N[C@@H](CC(C)C)C(=O)N[C@@H](CC(C)C)C(=O)N[C@@H](CC(N)=O)C(=O)N[C@@H](CCCN=C(N)N)C(=O)N[C@@H](CC(C)C)C(=O)N[C@H](C(=O)N[C@@H](CCCCN)C(=O)N[C@H](C(=O)N[C@@H](CC(C)C)C(=O)N[C@@H](CO)C(=O)N[C@@H](CCCCN)C(=O)O)[C@@H](C)CC)[C@@H](C)O)[C@@H](C)CC)C(C)C)[C@@H](C)O [ITKVIAKLLNRLTKILSK]	4.7 µM (≈ 9.65 µg/mL)	12.5 µM (≈ 25.7 µg/mL)	3.1 µM (≈ 6.36 µg/mL)	1.05 µM (≈ 2.16 µg/mL)	5.2 µM (≈ 10.7 µg/mL)	16.7 µM (≈ 34.3 µg/mL)	3.1 µM (≈ 6.36 µg/mL)	–	–	–	–	–	–
CC[C@H](C)[C@H](N)C(=O)N[C@H](C(=O)N[C@@H](CCC(=O)O)C(=O)N[C@H](C(=O)N[C@H](C(=O)N[C@H](C(=O)N[C@H](C(=O)N[C@@H](CC(C)C)C(=O)N[C@@H](CC(C)C)C(=O)N[C@@H](CC(N)=O)C(=O)N[C@@H](CCCN=C(N)N)C(=O)N[C@@H](CC(C)C)C(=O)N[C@H](C(=O)N[C@@H](CC(=O)O)C(=O)N[C@@H](CCCN=C(N)N)C(=O)N[C@@H](CC(C)C)C(=O)N[C@@H](CCC(=O)O)C(=O)N[C@@H](CCCCN)C(=O)O)[C@@H](C)O)[C@@H](C)CC)[C@@H](C)O)[C@@H](C)CC)C(C)C)[C@@H](C)O [ITEVITILLNRLTDRLEK]	≥ 100 µM	≥ 100 µM	> 100 µM	≥ 100 µM	> 100 µM	≥ 100 µM	≥ 100 µM	–	–	–	–	–	–
CC[C@H](C)[C@H](NC(=O)[C@@H]1CCCN1C(=O)[C@H](CCCN=C(N)N)NC(=O)[C@H](CCCN=C(N)N)NC(=O)[C@H](CCCN=C(N)N)NC(=O)[C@@H](N)CCCN=C(N)N)C(=O)N[C@@H](CCCN=C(N)N)C(=O)N[C@@H](CCCN=C(N)N)C(=O)N[C@@H](CCCN=C(N)N)C(=O)N1CCC[C@H]1C(=O)N[C@H](C(=O)N[C@@H](CCCN=C(N)N)C(=O)N1CCC[C@H]1C(=O)N1CCC[C@H]1C(=O)N[C@@H](Cc1c[nH]c2ccccc12)C(=O)N[C@@H](Cc1ccc(O)cc1)C(=O)N[C@@H](CCCN=C(N)N)C(=O)O)[C@@H](C)CC [RRRRPIRRRPIRPPWYR]	–	–	–	–	–	–	–	–	–	–	–	–	MIC (Escherichia coli BW25113): 16 µM (≈ 38.2 µg/mL)
CC[C@H](C)[C@H](N)C(=O)N[C@@H](Cc1cnc[nH]1)C(=O)N[C@@H](Cc1cnc[nH]1)C(=O)N[C@H](C(=O)N[C@@H](Cc1cnc[nH]1)C(=O)N[C@@H](Cc1cnc[nH]1)C(=O)N[C@@H](Cc1cnc[nH]1)C(=O)N[C@H](C(=O)N[C@@H](Cc1cnc[nH]1)C(=O)N[C@@H](Cc1cnc[nH]1)C(=O)N[C@H](C(=O)N[C@@H](Cc1cnc[nH]1)C(=O)N[C@@H](Cc1cnc[nH]1)C(=O)N[C@@H](Cc1cnc[nH]1)C(=O)N[C@H](C(=O)N[C@@H](Cc1cnc[nH]1)C(=O)N[C@@H](Cc1cnc[nH]1)C(=O)N[C@H](C(=O)N[C@@H](Cc1cnc[nH]1)C(=O)N[C@@H](Cc1cnc[nH]1)C(=O)N[C@@H](Cc1cnc[nH]1)C(=O)N[C@H](C(=O)N[C@@H](Cc1cnc[nH]1)C(=O)N[C@@H](Cc1cnc[nH]1)C(=O)N[C@H](C(=O)N[C@@H](Cc1cnc[nH]1)C(=O)N[C@@H](Cc1cnc[nH]1)C(=O)N[C@@H](Cc1cnc[nH]1)C(N)=O)[C@@H](C)CC)[C@@H](C)CC)[C@@H](C)CC)[C@@H](C)CC)[C@@H](C)CC)[C@@H](C)CC)[C@@H](C)CC [IHHIHHHIHHIHHHIHHIHHHIHHIHHH]	–	–	–	–	–	–	–	–	–	–	–	–	MIC [13]: 2 µM (≈ 7.33 µg/mL); MIC [14]: 1 µM (≈ 3.67 µg/mL); MIC [15]: > 64 µM; MIC [16]: 64 µM (≈ 235 µg/mL); MIC [17]: ≥ 64 µM; MIC [18]: 2 µM (≈ 7.33 µg/mL); MIC [19]: > 64 µM; MIC [20]: ≥ 64 µM; MIC [21]: 8 µM (≈ 29.3 µg/mL); MIC [22]: > 64 µM
C[C@H](NC(=O)[C@H](Cc1ccccc1)NC(=O)[C@H](CCCCN)NC(=O)[C@H](CCCCN)NC(=O)[C@H](C)NC(=O)[C@H](Cc1ccccc1)NC(=O)[C@H](CCCCN)NC(=O)[C@H](CCCCN)NC(=O)[C@H](C)NC(=O)[C@H](Cc1ccccc1)NC(=O)[C@H](CCCCN)NC(=O)[C@H](CCCCN)NC(=O)[C@H](C)NC(=O)[C@H](Cc1ccccc1)NC(=O)[C@@H](N)CCCCN)C(=O)N[C@@H](CCCCN)C(=O)O [KFAKKFAKKFAKKFAK]	–	–	–	–	–	–	–	≥ 45.9 µM	≥ 65.2 µM	≥ 130 µM	3.62 µM (≈ 6.93 µg/mL)	55.3 µM (≈ 106 µg/mL)	–

Continued, in another order:

MIC [1]	MIC [2]	MIC [3]	MIC [4]	MIC [5]	MIC [6]	MIC [7]	MIC [8]	MIC [9]	MIC [10]	MIC [11]	MIC [12]	Structure (SMILES)	further results
–	–	–	–	–	–	–	≥ 288 µM	≥ 72 µM	≥ 144 µM	≥ 50.9 µM	> 144 µM	C[C@H](NC(=O)[C@H](Cc1ccccc1)NC(=O)[C@H](CCCCN)NC(=O)[C@H](Cc1ccccc1)NC(=O)[C@H](C)NC(=O)[C@H](Cc1ccccc1)NC(=O)[C@H](CCCCN)NC(=O)[C@H](Cc1ccccc1)NC(=O)[C@H](C)NC(=O)[C@H](Cc1ccccc1)NC(=O)[C@H](CCCCN)NC(=O)[C@H](Cc1ccccc1)NC(=O)[C@H](C)NC(=O)[C@H](Cc1ccccc1)NC(=O)[C@H](CCCCN)NC(=O)[C@H](Cc1ccccc1)NC(=O)[C@H](C)NC(=O)[C@H](Cc1ccccc1)NC(=O)[C@H](CCCCN)NC(=O)[C@H](Cc1ccccc1)NC(=O)[C@H](C)NC(=O)[C@H](Cc1ccccc1)NC(=O)[C@H](CCCCN)NC(=O)[C@H](Cc1ccccc1)NC(=O)[C@H](C)NC(=O)[C@H](Cc1ccccc1)NC(=O)[C@@H](N)CCCCN)C(=O)N[C@@H](Cc1ccccc1)C(=O)O [KFAFKFAFKFAFKFAFKFAFKFAFKFAF]	–
4.2 µM (≈ 8.69 µg/mL)	25 µM (≈ 51.7 µg/mL)	2.08 µM (≈ 4.3 µg/mL)	1.05 µM (≈ 2.17 µg/mL)	> 50 µM	16.7 µM (≈ 34.5 µg/mL)	2.8 µM (≈ 5.79 µg/mL)	–	–	–	–	–	CC[C@H](C)[C@H](N)C(=O)N[C@H](C(=O)N[C@@H](CCCCN)C(=O)N[C@H](C(=O)N[C@H](C(=O)N[C@H](C(=O)N[C@@H](CCCCN)C(=O)N[C@@H](CC(C)C)C(=O)N[C@@H](CC(C)C)C(=O)N[C@@H](CC(N)=O)C(=O)N[C@@H](CCCN=C(N)N)C(=O)N[C@@H](CC(C)C)C(=O)N[C@@H](CO)C(=O)N[C@@H](CCCCN)C(=O)N[C@H](C(=O)N[C@@H](CC(C)C)C(=O)N[C@@H](CO)C(=O)N[C@@H](CCCCN)C(=O)O)[C@@H](C)CC)[C@@H](C)O)[C@@H](C)CC)C(C)C)[C@@H](C)O [ITKVITKLLNRLSKILSK]	–
–	–	–	–	–	–	–	30.2 µM (≈ 88 µg/mL)	15.4 µM (≈ 45 µg/mL)	≥ 85.8 µM	15.3 µM (≈ 44.5 µg/mL)	121 µM (≈ 354 µg/mL)	CC(C)C[C@H](NC(=O)[C@H](CCCCN)NC(=O)[C@H](CC(C)C)NC(=O)[C@H](CCCCN)NC(=O)[C@H](CC(C)C)NC(=O)[C@H](CCCCN)NC(=O)[C@H](CC(C)C)NC(=O)[C@H](CCCCN)NC(=O)[C@H](CC(C)C)NC(=O)[C@H](CCCCN)NC(=O)[C@H](CC(C)C)NC(=O)[C@H](CCCCN)NC(=O)[C@H](CC(C)C)NC(=O)[C@H](CCCCN)NC(=O)[C@H](CC(C)C)NC(=O)[C@H](CCCCN)NC(=O)[C@H](CC(C)C)NC(=O)[C@H](CCCCN)NC(=O)[C@H](CC(C)C)NC(=O)[C@H](CCCCN)NC(=O)[C@H](CC(C)C)NC(=O)[C@H](CCCCN)NC(=O)[C@@H](N)CC(C)C)C(=O)N[C@@H](CCCCN)C(=O)O [LKLKLKLKLKLKLKLKLKLKLKLK]	–
